Read-outs that look alike come from different tables or passages of the source.
What was measured:
[1] = Plasma radioactivity and epertinib after single oral [14C]-epertinib hydrochloride in rats; assay type: in vivo
Source text: We used quantitative IMS to analyze and compare the distribution of epertinib and lapatinib in brain metastasis. IMS can simultaneously detect diverse molecules and obtain spatial distribution information capable of distinguishing between a drug and its metabolites in tissue sections[21],[35]. Historically, drug metabolism and pharmacokinetic studies have used radiolabels to perform autoradiography and obtain information about tissue distribution. Previously, plasma concentrations of radioactivity and epertinib were determined after a single oral administration of [^14C]-epertinib hydrochloride at a dose of 5 mg/kg (as epertinib) in rats (Supplementary Fig. S3). […] The AUC0–12 h and AUCinf values were 126 ± 18 and 392 ± 316 ng·h/mL, respectively. The plasma epertinib/radioactivity concentration ratio ranged from 10.9% to 16.2% through the measurable points, and the AUCinf ratio was ~20.8 ± 15.0%.
Supplementa ry Figure S3. Concentration of radioactivity and epertinib in plasma after single oral administration of [14C]-epertinib hydrochloride to non-f as ti ng male rats (dose: 5 mg as epertinib /kg)
Data ar e ex pressed as the mean values + SD o f fou r animals.
(1 picture or pasted object on this page, not shown here)

[2] = target: T1, breast cancer resistance protein (BCRP) (Homo sapiens, UniProt Q9UNQ0); assay: BCRP substrate assessment; assay type: in vitro ADME; conditions: from permeability and efflux ratio across Caco-2 cell monolayers
T1 construct: permeability and efflux ratio of epertinib across Caco-2 cell monolayers; endogenous in cells; host or cells: Caco-2
T1 sequence (Q9UNQ0 1-655): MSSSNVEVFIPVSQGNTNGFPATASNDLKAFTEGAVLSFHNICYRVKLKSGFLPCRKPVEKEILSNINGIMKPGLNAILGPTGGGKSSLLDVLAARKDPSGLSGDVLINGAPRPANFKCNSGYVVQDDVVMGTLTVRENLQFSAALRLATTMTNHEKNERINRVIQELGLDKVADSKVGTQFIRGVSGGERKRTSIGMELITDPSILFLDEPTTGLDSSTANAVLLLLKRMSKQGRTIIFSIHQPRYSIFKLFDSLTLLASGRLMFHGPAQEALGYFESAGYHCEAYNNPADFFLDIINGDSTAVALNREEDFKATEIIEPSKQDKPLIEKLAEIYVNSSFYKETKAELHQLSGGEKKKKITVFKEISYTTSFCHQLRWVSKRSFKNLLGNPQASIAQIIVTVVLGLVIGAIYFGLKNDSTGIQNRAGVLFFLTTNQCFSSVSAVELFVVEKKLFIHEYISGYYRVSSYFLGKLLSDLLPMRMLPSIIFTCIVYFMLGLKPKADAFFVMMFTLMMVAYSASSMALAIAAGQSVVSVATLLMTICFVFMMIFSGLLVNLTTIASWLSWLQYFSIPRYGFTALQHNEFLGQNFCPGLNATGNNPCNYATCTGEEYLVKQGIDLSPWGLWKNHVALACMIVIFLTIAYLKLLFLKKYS

[3] = system: experimental brain metastasis of HER2-positive breast cancer (IVM); assay: Antitumor activity in the breast cancer IVM (bioluminescence); assay type: in vivo, mice; conditions: once daily oral 50 mg/kg, 30 days, photons emitted from tumor
Source text: (§1) We evaluated the inhibitory activity of epertinib on the in vitro growth of the parental cell line, MDA-MB-361. […] To compare the growth inhibitory activity of epertinib on the parental and metastatic (BR2) cell lines, we evaluated the antitumor activity of epertinib in both cell lines. […] To confirm the antitumor activity of epertinib in the IVM, we examined the effect of epertinib on the IVM transplanted BR2.
Figure 6 In vivo antitumor activity of epertinib in the breast cancer IVM. Epertinib inhibits the growth of breast cancer in animal models. In each animal model, vehicle or indicated doses of epertinib were orally administered daily. Tumor volume was measured twice or thrice weekly and the mean tumor volume with SD is represented by each data point. Human breast cancer cells, MDA-MB-361 (A) or MDA-MB-361-luc-BR2 (B) was implanted orthotopically into the mammary fat pad of mice. Tumor-bearing mice were treated for 28 days (A and B). Tumor growth in the breast cancer IVM ([…]) was monitored by the photons emitted from the tumor as an indicator, which was measured with an IVIS Imaging System 200 (Caliper Life Sciences). […] The photons were measured once or twice weekly and the mean photons/sec with SD are presented at each data point (n = 3 for vehicle, n = 4 for 50 mg/kg of epertinib) (C). […]

[4] = system: HER2-positive metastatic breast cancer patients; parameters: method as in earlier work; conditions: cited from earlier work; for Objective response rate (ORR): heavily pretreated HER2-positive metastatic breast cancer
P-glycoprotein (P-gp) [5] = target: T2, P-glycoprotein (P-gp) (Homo sapiens, UniProt P08183); assay: P-gp substrate assessment; assay type: in vitro ADME; conditions: from permeability and efflux ratio across Caco-2 cell monolayers
T2 construct: permeability and efflux ratio of epertinib across Caco-2 cell monolayers; endogenous in cells; host or cells: Caco-2

EGFR = system: EGFR; parameters: method as in PMID 24837299; conditions: cited from earlier work
HER2 = system: HER2; parameters: method as in PMID 24837299; conditions: cited from earlier work
MDA-MB-361 cell line = assay: In vitro growth inhibition of parental cell line; assay type: cell-based; conditions: Homo sapiens
Source text: as §1

[6] = healthy volunteers, single oral 250 mg [14C]-lapatinib; cited from earlier work
[7] = system: albumin and α-1 acid glycoprotein; parameters: method as in PMID 25547867; conditions: cited from earlier work
[8] = system: HER2-positive metastatic breast cancer patients; conditions: historical data, combination with trastzumab; cited from earlier work
P-glycoprotein (P-gp) [9] = target: T2, P-glycoprotein (P-gp); conditions: cited from earlier work

T2 sequence (P08183 whole entry): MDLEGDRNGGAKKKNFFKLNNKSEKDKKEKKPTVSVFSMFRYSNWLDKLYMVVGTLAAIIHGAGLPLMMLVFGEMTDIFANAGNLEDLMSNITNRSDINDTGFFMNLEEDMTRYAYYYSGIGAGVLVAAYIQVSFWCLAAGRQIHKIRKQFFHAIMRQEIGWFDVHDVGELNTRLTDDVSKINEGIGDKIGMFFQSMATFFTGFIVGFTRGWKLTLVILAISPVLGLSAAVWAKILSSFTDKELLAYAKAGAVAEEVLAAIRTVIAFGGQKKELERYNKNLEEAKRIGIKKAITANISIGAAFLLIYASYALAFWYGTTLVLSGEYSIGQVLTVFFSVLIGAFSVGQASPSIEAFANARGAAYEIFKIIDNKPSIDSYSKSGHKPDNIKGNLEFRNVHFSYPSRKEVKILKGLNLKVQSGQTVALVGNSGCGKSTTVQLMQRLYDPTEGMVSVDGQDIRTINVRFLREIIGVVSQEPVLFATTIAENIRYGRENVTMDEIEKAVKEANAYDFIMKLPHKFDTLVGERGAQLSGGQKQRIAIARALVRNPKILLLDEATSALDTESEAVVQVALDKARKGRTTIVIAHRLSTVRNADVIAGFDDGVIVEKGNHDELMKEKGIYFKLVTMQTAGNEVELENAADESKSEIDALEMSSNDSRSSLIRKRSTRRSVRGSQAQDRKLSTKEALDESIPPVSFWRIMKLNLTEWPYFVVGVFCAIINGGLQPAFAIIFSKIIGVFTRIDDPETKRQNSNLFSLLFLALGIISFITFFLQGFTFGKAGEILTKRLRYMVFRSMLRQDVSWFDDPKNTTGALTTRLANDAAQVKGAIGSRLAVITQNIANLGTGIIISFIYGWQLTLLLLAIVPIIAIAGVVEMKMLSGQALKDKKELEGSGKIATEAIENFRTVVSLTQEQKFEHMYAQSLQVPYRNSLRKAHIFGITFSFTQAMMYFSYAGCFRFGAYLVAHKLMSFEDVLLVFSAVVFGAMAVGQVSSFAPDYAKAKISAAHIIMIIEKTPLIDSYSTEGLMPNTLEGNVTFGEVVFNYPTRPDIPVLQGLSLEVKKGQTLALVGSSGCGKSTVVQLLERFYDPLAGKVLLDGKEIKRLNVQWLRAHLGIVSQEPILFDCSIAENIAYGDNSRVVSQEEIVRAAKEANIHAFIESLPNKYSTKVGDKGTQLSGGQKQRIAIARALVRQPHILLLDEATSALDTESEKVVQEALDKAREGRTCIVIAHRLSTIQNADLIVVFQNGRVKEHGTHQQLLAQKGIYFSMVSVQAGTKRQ

CC#CC(=NOCC1COCCN1)c1ccc2ncnc(Nc3ccc(OCc4cccc(F)c4)c(Cl)c3)c2c1 (stereo not shown) [Epertinib]
Epertinib/radioactivity AUCinf ratio [1]: ~ 20.8 ± 15.0% | AUC(0-t) ([1]; male, rat, plasma, single oral 5 mg/kg [14C]-epertinib hydrochloride, read-out: AUC0–12 h of epertinib): 126 ± 18 ng·h/mL | AUC(0-inf) ([1]; male, rat, plasma, single oral 5 mg/kg [14C]-epertinib hydrochloride, read-out: AUCinf of epertinib): 392 ± 316 ng·h/mL | Cmax ([1]; male, rat, plasma, single oral 5 mg/kg [14C]-epertinib hydrochloride, read-out: Plasma concentration of epertinib, Cmax): 14.1 ± 3.6 ng/mL | Time of Cmax of plasma epertinib ([1]; single oral 5 mg/kg [14C]-epertinib hydrochloride): 5.00 ± 1.15 h | BCRP substrate [2]: not a substrate | Effect on brain tumor volume [3]: significantly reduced the brain tumor volume | Tumor reduction (partial response), brain metastases as the target lesion ([4]; all the participants in a clinical trial): two of 45 | Objective response rate (ORR) ([4]; in combination with trastuzumab and capecitabine): 56% | Objective response rate (ORR) ([4]; in combination with trastuzumab): 67% | Tumor response (patients) ([4]; in combination with trastuzumab, patients previously treated with lapatinib plus capecitabine or ado-trastuzumab emtansine): seven of 21 | P-gp substrate (P-glycoprotein (P-gp) [5]): not a substrate | Off-rate of dissociation compared with lapatinib (EGFR): slower off-rate of dissociation | Off-rate of dissociation compared with lapatinib (HER2): slower off-rate of dissociation | IC50 (MDA-MB-361 cell line): 26.5 nM

CS(=O)(=O)CCNCc1ccc(-c2ccc3ncnc(Nc4ccc(OCc5cccc(F)c5)c(Cl)c4)c3c2)o1 [Lapatinib, N-{3-chloro-4-[(3-fluorobenzyl)oxy]phenyl}-6-[5-({[2-(methylsulfonyl)ethyl]amino}methyl)-2-furyl]-4-quinazolinamine, reference compound]
Mean plasma concentration of lapatinib at Cmax [6]: 330 ng/mL | Binding to albumin and α-1 acid glycoprotein [7]: > 99.9% | Objective response rate (ORR) [8]: 10.3% | P-gp substrate (P-glycoprotein (P-gp) [9]): substrates

Reference: publication PMC5762859, “Distribution analysis of epertinib in brain metastasis of HER2-positive breast cancer by imaging mass spectrometry and prospect for antitumor activity” (Scientific Reports, 2018)
